Experimental data from patent US9868736B2, “Deubiquitinase inhibitors and methods for use of the same” (THE REGENTS OF THE UNIVERSITY OF MICHIGAN, priority 2013, dated 2018).
≈ marks a conversion by molar mass, not a printed value. Where two headings read alike, the source gives them in different places.

Assays:
[1] = background statement; cited from earlier work
Mcl-1, PARP = test: Mcl-1 level and PARP cleavage in treated tumor cells; format: cell-based; conditions: Z138 lymphoma cells, 1.25, 2.5 and 5 μM, 4 hours
aqueous solubility = format: physicochemical
[2] = target: T1, catalytic domain of Usp9x (Usp9xCD) (Homo sapiens, UniProt Q93008); test: Usp9xCD Ub-AMC enzyme assay; format: biochemical; conditions: 300 nM Usp9xCD, 30 min at 37° C. with inhibitor, 1.5 μM Ub-AMC
T1 construct: DNA corresponding to amino acids 1553-1960 of human Usp9x; His6-Smt3 (SUMO) fusion tag, ULP1-cleavable (N, cleaved yes); made in house; host or cells: E. coli
T1 sequence (Q93008 1553-1960): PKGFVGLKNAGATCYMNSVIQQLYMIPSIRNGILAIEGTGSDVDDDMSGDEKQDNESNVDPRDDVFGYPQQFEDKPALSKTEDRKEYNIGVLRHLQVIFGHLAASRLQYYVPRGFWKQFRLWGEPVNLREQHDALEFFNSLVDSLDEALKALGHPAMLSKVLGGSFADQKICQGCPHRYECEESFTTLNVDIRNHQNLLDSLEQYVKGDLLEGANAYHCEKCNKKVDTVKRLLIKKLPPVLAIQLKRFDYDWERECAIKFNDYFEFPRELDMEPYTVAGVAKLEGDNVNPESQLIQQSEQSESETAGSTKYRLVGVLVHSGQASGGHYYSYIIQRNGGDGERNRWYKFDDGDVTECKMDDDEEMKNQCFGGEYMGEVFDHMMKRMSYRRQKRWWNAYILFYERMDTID
Procedure: A series of chemical modifications were initiated to increase our structure activity relationship (SAR) analysis of inhibitors. […] The DNA was cloned into a ULP1-protease cleavable N-terminal His6-Smt3-fusion tag expression vector, derived from pET-28. Protein expression was induced at OD600 2.0, in TB media with Kanamycin overnight at 16° C. Cells were harvested and flash frozen before use. […] Protein was concentrated to roughly 20-40 mg/ml before aliquots were flash-frozen. All steps were performed in the presence of reducing agents, either BME, DTT, or TCEP.
Purified recombinant enzyme in buffer containing 2 mM DTT was buffer exchanged into 25 mM Tris-HCl, 50 mM NaCl and 1 mg/ml BSA using a spin column. […] IC50 values were estimated by integrating the slope of each reaction using GraphPad 6.
Two hundred and ten (210) novel chemical structures were screened for Usp9xCD inhibitory activity using this assay. […] Fluorescent scans were used to assess Usp9xCD inhibitory activity in this enzyme assay for all compounds of interest. Each assay was performed in duplicate and the linear region of each reaction curve was used to calculate IC50 values for Usp9xCD inhibition which are tabulated in Table 1.

Usp9x = Usp9x (Homo sapiens, UniProt Q93008); test: DUB activity (HA-Ub vinyl-sulfone labelling) in lysates of treated intact cells; format: cell-based; design: endogenous in cells; host or cells: Z138 lymphoma, MM1.S/MM1.ST myeloma, primary PCL cells, A375 and vemurafenib-resistant A375 melanoma; conditions: Z138 lymphoma cells, 1.25, 2.5 and 5 μM, 4 hours
Procedure: In brief, control and treated cells were lysed by sonication in DUB assay buffer [50 mM Tris-HCl (pH 7.5), 5 mM MgCl2, 250 mM sucrose, 1 mM PMSF, 1× Roche proteinase inhibitory cocktail] and 20 μg of protein from the supernatant fraction (after a 14,000×g spin) were incubated with 200 nM HA-Ub vinyl-sulfone (Boston Biochem) in a final volume of 20 μl. After 90 min at 37° C., reactions were stopped with the addition of 5×-sample buffer. DUB activity was detected by SDS-PAGE resolution of the protein followed by nitrocellulose membrane transfer and immunoblotting with anti-HA.
The time required for G9-mediated Usp9x inhibition in intact multiple myeloma (MM1.S) cells and primary tumor cells from a patient with plasma cell leukemia (PCL) was investigated. MM1.ST (FIG. 1, left) or PCL (FIG. 1, right) cells were treated with 5 μM of compound for the time indicated before Usp9x activity was assessed as described above.

[3] = system: vemurafenib sensitive and resistant A375 melanoma cells; test: in vitro anti-tumor efficacy in A375 melanoma cells; format: cell-based; conditions: A375 cells, Usp5 knockdown
Description: Similar results were obtained in A375R Usp5 KD cells treated with a MEK inhibitor.

Usp9x, sequence (Q93008 whole entry): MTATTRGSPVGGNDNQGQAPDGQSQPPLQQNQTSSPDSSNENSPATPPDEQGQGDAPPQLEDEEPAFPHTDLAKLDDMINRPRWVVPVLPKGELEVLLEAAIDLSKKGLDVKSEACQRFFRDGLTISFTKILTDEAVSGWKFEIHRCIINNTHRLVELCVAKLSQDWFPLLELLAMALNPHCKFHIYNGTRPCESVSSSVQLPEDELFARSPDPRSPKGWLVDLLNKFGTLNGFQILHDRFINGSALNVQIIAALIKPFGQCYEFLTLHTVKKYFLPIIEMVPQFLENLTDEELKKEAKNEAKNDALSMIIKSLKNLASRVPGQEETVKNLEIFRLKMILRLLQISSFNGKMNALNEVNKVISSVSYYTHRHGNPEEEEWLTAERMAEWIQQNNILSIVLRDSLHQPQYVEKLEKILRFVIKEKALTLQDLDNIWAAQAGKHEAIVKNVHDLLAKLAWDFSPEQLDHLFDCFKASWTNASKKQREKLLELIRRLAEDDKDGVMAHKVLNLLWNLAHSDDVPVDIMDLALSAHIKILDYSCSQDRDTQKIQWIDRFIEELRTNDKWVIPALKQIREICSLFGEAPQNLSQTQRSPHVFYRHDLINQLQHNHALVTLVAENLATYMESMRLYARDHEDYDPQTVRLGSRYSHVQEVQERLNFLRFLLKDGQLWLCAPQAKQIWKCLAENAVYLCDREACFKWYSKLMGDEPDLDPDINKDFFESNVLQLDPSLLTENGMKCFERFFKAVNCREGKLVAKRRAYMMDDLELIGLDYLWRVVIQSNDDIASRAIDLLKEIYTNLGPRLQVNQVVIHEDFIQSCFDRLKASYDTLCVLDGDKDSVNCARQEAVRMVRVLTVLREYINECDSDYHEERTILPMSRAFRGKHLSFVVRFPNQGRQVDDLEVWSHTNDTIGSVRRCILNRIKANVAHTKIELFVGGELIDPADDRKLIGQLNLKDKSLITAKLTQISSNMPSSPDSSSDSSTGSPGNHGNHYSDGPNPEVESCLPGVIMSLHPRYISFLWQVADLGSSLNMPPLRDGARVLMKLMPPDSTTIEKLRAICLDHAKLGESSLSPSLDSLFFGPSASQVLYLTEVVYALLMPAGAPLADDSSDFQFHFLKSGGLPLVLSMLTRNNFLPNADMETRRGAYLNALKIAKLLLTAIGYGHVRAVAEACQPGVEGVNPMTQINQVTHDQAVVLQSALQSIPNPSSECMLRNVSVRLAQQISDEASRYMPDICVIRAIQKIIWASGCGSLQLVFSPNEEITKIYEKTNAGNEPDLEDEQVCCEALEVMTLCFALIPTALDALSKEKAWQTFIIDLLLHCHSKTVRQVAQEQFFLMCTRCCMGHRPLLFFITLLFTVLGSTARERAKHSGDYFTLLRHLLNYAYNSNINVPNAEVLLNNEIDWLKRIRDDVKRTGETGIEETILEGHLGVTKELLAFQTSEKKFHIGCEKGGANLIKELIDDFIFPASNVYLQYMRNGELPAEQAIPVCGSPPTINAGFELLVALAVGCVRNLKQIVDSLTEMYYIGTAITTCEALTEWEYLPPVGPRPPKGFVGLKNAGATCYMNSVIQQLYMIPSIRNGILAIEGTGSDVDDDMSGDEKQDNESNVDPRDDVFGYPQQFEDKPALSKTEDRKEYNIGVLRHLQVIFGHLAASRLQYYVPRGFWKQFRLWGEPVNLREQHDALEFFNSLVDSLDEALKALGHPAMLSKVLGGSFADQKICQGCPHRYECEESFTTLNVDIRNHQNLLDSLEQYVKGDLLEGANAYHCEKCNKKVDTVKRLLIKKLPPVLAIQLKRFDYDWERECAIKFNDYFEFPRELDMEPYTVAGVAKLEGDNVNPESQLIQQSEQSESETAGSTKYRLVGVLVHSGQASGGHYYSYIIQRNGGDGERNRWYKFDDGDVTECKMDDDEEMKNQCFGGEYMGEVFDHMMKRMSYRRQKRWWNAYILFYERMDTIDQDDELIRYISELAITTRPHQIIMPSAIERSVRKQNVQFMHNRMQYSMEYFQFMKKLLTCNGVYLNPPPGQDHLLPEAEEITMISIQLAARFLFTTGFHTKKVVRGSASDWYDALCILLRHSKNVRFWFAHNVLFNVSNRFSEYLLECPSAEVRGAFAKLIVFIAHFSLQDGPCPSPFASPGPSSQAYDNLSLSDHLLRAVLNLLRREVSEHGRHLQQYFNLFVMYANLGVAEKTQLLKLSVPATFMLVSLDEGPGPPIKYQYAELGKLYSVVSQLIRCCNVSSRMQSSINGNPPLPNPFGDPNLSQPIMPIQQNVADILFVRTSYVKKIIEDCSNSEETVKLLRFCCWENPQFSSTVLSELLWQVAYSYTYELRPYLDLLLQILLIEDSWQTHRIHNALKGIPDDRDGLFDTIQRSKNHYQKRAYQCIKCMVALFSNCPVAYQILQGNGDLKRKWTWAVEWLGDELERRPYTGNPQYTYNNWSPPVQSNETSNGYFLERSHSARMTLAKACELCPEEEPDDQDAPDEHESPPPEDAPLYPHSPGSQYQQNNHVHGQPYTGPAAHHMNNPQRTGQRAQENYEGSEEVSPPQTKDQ

SMILES	solubility [1]	level of Mcl-1 (Mcl-1, PARP)	solubility (aqueous solubility) [µM]	IC50 [2] [µM]	Usp9x activity in intact cells (Usp9x)	reduction of the vemurafenib IC50 concentration by Usp5 KD [3]
CCC[C@H](NC(=O)/C(C#N)=C/c1cccc(Br)n1)c1ccccc1 [WP1130, reference compound]	poor solubility	reduce the level of a downstream target of Usp9x	2.6 (≈ 0.999 µg/mL)	4.8	able to inhibit Usp9x activity in intact cells	–
CCCS(=O)(=O)Nc1ccc(F)c(C(=O)c2c[nH]c3ncc(-c4ccc(Cl)cc4)cc23)c1F [vemurafenib, reference compound]	–	–	–	–	–	about 2 fold
CCCC(NC(=O)/C(C#N)=C/c1nc(Cl)ccc1Cl)c1ccc(OCCN2CCOCC2)cc1 (stereo not shown) [drawing 26]	–	–	–	1.6	–	–
